The source of these data is ChEMBL document CHEMBL4680245, “Design, synthesis and biological evaluation of tetrahydroquinoline-based reversible LSD1 inhibitors” (Eur J Med Chem, 2020).

The target in one data set is T1, CYP1A2 (Homo sapiens, UniProt P05177).
T1 sequence (P05177 whole entry): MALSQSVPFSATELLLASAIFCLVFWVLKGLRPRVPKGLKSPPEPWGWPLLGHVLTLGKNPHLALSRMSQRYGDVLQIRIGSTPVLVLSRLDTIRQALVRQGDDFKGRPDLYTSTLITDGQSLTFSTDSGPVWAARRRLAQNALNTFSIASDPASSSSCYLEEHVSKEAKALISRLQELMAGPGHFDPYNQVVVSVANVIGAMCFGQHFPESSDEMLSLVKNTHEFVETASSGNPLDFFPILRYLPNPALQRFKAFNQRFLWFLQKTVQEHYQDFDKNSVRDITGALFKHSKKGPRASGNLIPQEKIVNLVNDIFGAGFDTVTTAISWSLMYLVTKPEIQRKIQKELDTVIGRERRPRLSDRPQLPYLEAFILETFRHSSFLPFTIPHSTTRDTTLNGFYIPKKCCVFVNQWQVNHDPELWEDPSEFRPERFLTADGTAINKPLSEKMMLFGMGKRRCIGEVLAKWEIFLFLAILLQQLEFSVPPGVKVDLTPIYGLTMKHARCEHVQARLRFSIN
Nature of the data set: Inhibition of CYP1A2 in human liver microsomes at 10 uM using CYP substrate preincubated for 10 mins followed by NADPH generating system addition and measured after 10 mins by LC-MS/MS analysis relative to control. Type of data set: ADME. Conditions: time 20 min. For orientation: Liver microsomes are vesicles of endoplasmic reticulum, rich in cytochrome P450 enzymes.

The test system of a further data set is THP-1. The experiment in a line: cells. Conditions: Homo sapiens, THP-1, 72 h.
Data set [1] has as its system MGC-803. The experiment in a line: Antitumor activity against human MGC-803 cells xenografted in Balb/c nude mouse assessed as reduction in tumor weight at 100 mg/kg, po administered once daily via gavage for 21 days measured post last dose relative to control. Type of data set: functional. Also noted: scale not given: the % may be the effect or the level left. To be noted: time 21 day. On the technique in general: A xenograft is tissue or cells of one species grown in another, often human tumour cells in immunodeficient mice.

Data set [2] relates to MGC-803. The experiment in a line: Induction of apoptosis in human MGC-803 cells assessed as apoptotic rate at 4 uM after 72 hrs by Annexin V-FITC/propidium iodide staining based flow cytometry relative to control. Type of data set: functional. In general terms: Flow cytometry measures light scatter and fluorescence of single cells or particles in a stream.
The test system of data set [3] is MGC-803. Nature of the data set: Induction of apoptosis in human MGC-803 cells after 72 hrs by Annexin V-FITC/propidium iodide staining based flow cytometry. Type of data set: functional, cell-based.
The test system of data set [4] is MGC-803. The experiment in a line: Antitumor activity against human MGC-803 cells xenografted in Balb/c nude mouse assessed as reduction in tumor volume at 100 mg/kg, po administered once daily via gavage for 21 days measured post last dose relative to control. Type of data set: functional. Also noted: scale not given: the % may be the effect or the level left. To be noted: time 21 day.

The target in data set [5] is T2, Lysine-specific histone demethylase 1A (Homo sapiens, UniProt O60341).
Description: Inhibition of human recombinant LSD1 using fluorogenic ADHP based substrate preincubated for 30 mins followed by substrate addition measured after 10 mins by horseradish peroxidase coupled fluorescence assay
The next data set deals with A549. Nature of the data set: cells. To be noted: Homo sapiens, A549, 72 h.
Data set [6] in a line: Intrinsic clearance in human microsomes preincubated for 10 mins followed by NADPH regenerating system addition and measured up to 60 mins by LC-MS/MS analysis. To be noted: time 10-70 min. Type of data set: ADME, Microsome.
For a further data set, the target named is CYP2D6 (Homo sapiens, UniProt P10635). The experiment in a line: Inhibition of CYP2D6 in human liver microsomes at 10 uM using CYP substrate preincubated for 10 mins followed by NADPH generating system addition and measured after 10 mins by LC-MS/MS analysis relative to control. Type of data set: ADME. Conditions: time 20 min.
The next data set concerns the target CYP2C19 (Homo sapiens, UniProt P33261). The experiment in a line: Inhibition of CYP2C19 in human liver microsomes at 10 uM using CYP substrate preincubated for 10 mins followed by NADPH generating system addition and measured after 10 mins by LC-MS/MS analysis relative to control. Type of data set: ADME. To be noted: time 20 min.
For data set [7], the target named is T3, Amine oxidase [flavin-containing] B (Homo sapiens, UniProt P27338).
T3 sequence (P27338 whole entry): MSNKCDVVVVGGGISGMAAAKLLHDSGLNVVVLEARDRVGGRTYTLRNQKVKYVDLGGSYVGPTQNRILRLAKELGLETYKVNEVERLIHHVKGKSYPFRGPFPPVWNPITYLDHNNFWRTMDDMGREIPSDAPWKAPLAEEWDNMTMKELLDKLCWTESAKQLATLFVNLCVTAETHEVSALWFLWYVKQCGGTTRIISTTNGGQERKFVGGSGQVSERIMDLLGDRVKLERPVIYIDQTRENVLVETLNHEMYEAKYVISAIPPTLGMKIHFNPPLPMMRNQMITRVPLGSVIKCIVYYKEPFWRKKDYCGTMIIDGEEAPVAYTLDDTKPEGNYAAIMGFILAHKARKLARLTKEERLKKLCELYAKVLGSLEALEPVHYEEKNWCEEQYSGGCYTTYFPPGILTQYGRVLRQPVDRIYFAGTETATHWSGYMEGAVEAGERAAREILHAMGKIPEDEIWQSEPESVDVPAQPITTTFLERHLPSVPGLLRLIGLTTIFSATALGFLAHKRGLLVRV
Nature of the data set: Inhibition of recombinant N-terminal FLAG-tagged human MAOB expressed in baculovirus infected Sf9 insect cells using luminogenic MAO substrate measured after 1 hr by MAO-glo assay.

A short description of data set [8]: Stability in human liver microsomes assessed as parent compound remaining measured 60 mins after mins by LC-MS/MS analysis. Type of data set: ADME, Microsome.
The target of data set [9] is T2, Lysine-specific histone demethylase 1A. The experiment in a line: Inhibition of LSD1 in human MGC-803 cells assessed as increase in H3K4me2 accumulation measured after 72 hrs by Western blot analysis. Type of data set: cell-based.
For another data set, the system named is MCF7. Nature of the data set: cells. To be noted: Homo sapiens, MCF7, 72 h.
The test system of data set [10] is MGC-803. Nature of the data set: cells. Conditions: Homo sapiens, MGC-803, 72 h.
Description: Antiproliferative activity against human MGC-803 cells incubated for 72 hrs by CCK8 assay
The next data set addresses CYP2C9 (Homo sapiens, UniProt P11712). The experiment in a line: Inhibition of CYP2C9 in human liver microsomes at 10 uM using CYP substrate preincubated for 10 mins followed by NADPH generating system addition and measured after 10 mins by LC-MS/MS analysis relative to control. Type of data set: ADME. Conditions: time 20 min.
Another data set deals with NB-4. Nature of the data set: cells. To be noted: Homo sapiens, NB-4, 72 h.
Data set [11] deals with MGC-803. Nature of the data set: Cell cycle arrest in human MGC-803 cells assessed as increase in S phase accumulation at 4 uM after 72 hrs by propidium iodide staining based flow cytometry. Type of data set: functional.
A short description of data set [12]: Stability in human liver microsomes assessed as parent compound remaining preincubated for 10 mins followed by NADPH regenerating system addition and measured up to 60 mins by LC-MS/MS analysis. Type of data set: ADME, Microsome. To be noted: time 10-70 min, read-out: Stabilty.
The nature of data set [13]: Half life in human liver microsomes preincubated for 10 mins followed by NADPH regenerating system addition and measured up to 60 mins by LC-MS/MS analysis. Type of data set: ADME, Microsome. Conditions: time 10-70 min.
For data set [14], the target named is T4, Amine oxidase [flavin-containing] A (Homo sapiens, UniProt P21397).
T4 sequence (P21397 whole entry): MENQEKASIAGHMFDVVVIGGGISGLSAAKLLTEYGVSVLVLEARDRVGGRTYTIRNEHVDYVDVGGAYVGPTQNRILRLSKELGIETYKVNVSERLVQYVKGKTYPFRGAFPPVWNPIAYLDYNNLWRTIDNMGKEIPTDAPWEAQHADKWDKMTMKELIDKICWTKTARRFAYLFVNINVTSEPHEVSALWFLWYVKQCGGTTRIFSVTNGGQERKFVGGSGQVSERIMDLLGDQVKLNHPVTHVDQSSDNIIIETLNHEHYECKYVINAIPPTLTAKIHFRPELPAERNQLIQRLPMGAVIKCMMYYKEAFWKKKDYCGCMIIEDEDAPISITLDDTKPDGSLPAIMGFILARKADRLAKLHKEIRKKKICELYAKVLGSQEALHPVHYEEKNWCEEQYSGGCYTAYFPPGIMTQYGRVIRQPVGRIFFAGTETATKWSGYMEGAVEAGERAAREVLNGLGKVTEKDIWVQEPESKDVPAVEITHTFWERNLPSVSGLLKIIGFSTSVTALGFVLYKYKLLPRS
The experiment in a line: Inhibition of recombinant N-terminal FLAG-tagged human MAOA expressed in baculovirus infected Sf9 insect cells using luminogenic MAO substrate measured after 1 hr by MAO-glo assay.

The subject of a further data set is PC-3. Nature of the data set: cells. To be noted: Homo sapiens, PC-3, 72 h.
Data set [15] can be described thus: Toxicity in human MGC-803 cells xenografted Balb/c nude mouse assessed as body weight loss at 50 to 100 mg/kg, po administered once daily via gavage for 21 days measured at 3 days interval during compound dosing. Conditions: in vivo, 504 h, dose 50-100 mg/kg, time 21 day. Type of data set: organism-based.
The next data set addresses CYP3A4 (Homo sapiens, UniProt P08684). The experiment in a line: Inhibition of CYP3A4 in human liver microsomes at 10 uM using CYP substrate preincubated for 10 mins followed by NADPH generating system addition and measured after 10 mins by LC-MS/MS analysis relative to control. Type of data set: ADME. To be noted: time 20 min.
In data set [16] the test system is MGC-803. The experiment in a line: Cell cycle arrest in human MGC-803 cells assessed as decrease in G2/M phase accumulation at 4 uM after 72 hrs by propidium iodide staining based flow cytometry. Type of data set: functional.
The target in data set [17] is T2, Lysine-specific histone demethylase 1A. Nature of the data set: Inhibition of LSD1 in human MGC-803 cells assessed as increase in H3K9me2 accumulation up to 4 uM measured after 72 hrs by Western blot analysis. Type of data set: cell-based. Conditions: dose microM <=4, time 72.0 hrs.
The target is the same in data set [18]. The experiment in a line: Non-competitive inhibition of recombinant N-terminal FLAG-tagged human LSD1 expressed in baculovirus infected Sf9 insect cells up to 0.6 uM using varying levels of H3K4me2 as substrate measured after 45 mins by Lineweaver-burk plot analysis. To be noted: dose microM <=0.6, time 45.0 min.
Data set [19] shares this target. Nature of the data set: Reversible inhibition of recombinant N-terminal FLAG-tagged human LSD1 expressed in baculovirus infected Sf9 insect cells at 10 times IC50 using H3K4me2 as substrate preincubated for 30 mins followed by 100 fold dilution and subsequent substrate addition and measured after 30 mins by jump dilution method. To be noted: time 60.0 min.
The target is the same in data set [20]. Nature of the data set: Inhibition of LSD1 in human MGC-803 cells assessed as increase in H3K9me1 accumulation up to 4 uM measured after 72 hrs by Western blot analysis. Type of data set: cell-based. Conditions: dose microM <=4, time 72.0 hrs.
For data set [21] the target is unchanged. The experiment in a line: Inhibition of LSD1 (unknown origin) by TR-FRET assay.

The source made the active and inactive calls. No cut-off for these calls is given here. Some results are limits rather than exact numbers.

CYP2D6, sequence (P10635 whole entry): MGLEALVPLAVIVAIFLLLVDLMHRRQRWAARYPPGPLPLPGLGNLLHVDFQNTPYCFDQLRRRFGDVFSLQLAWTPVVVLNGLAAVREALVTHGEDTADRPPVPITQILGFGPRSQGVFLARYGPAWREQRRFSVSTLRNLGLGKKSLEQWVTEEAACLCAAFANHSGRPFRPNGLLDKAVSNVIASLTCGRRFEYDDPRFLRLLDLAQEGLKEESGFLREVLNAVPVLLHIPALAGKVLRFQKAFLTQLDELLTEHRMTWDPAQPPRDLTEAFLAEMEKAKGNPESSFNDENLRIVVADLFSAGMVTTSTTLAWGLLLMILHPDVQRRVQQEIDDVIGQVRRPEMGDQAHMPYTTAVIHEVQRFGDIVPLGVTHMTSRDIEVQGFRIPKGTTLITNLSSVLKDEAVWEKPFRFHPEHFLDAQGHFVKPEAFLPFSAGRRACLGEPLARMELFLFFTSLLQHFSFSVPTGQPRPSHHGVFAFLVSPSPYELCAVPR
CYP3A4, sequence (P08684 whole entry): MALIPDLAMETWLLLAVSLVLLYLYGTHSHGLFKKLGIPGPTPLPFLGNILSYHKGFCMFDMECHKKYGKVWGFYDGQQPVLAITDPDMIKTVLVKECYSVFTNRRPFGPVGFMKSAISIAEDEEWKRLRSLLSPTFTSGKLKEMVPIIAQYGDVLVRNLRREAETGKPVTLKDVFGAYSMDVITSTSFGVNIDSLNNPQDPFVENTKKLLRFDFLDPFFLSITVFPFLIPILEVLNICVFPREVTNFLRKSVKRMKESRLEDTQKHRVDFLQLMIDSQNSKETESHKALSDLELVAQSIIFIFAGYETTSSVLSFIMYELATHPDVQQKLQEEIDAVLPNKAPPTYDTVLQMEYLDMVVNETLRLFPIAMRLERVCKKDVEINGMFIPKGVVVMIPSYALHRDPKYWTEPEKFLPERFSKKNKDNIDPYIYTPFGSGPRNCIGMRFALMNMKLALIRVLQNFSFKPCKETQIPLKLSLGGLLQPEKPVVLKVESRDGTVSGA
CYP2C9, sequence (P11712 whole entry): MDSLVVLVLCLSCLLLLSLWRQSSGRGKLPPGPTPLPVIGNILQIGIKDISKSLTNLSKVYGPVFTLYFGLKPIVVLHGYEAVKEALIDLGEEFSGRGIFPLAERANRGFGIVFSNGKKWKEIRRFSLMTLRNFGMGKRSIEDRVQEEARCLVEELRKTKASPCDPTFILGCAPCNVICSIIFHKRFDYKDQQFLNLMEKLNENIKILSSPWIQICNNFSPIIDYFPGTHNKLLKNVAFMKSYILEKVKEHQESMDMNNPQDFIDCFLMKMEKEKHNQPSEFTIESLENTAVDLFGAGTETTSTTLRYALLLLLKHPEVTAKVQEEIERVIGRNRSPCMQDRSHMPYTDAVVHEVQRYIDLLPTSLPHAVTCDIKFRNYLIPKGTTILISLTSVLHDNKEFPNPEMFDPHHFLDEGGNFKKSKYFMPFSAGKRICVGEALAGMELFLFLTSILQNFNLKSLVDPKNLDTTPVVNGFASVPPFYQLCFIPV
CYP2C19, sequence (P33261 whole entry): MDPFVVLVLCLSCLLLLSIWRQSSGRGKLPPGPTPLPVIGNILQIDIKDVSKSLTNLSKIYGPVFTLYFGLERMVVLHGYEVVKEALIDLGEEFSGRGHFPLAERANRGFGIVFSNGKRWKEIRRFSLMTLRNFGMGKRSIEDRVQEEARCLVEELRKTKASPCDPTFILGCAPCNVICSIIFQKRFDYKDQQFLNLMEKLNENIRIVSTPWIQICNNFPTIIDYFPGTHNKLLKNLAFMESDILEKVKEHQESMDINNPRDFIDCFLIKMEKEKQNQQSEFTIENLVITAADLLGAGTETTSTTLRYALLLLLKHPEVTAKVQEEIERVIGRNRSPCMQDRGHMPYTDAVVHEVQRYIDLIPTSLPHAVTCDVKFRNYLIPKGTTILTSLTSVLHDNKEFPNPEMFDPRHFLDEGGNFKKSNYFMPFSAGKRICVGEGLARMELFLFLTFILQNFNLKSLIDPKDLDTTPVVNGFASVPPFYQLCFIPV
Description for A549: Antiproliferative activity against human A549 cells incubated for 72 hrs by CCK8 assay
Description for MCF7: Antiproliferative activity against human MCF7 cells incubated for 72 hrs by CCK8 assay
Description for NB-4: Antiproliferative activity against human NB-4 cells incubated for 72 hrs by CCK8 assay
Description for PC-3: Antiproliferative activity against human PC-3 cells incubated for 72 hrs by CCK8 assay
Description for THP-1: Antiproliferative activity against human THP-1 cells incubated for 72 hrs by CCK8 assay

Take `Cn1c(C(=O)Nc2cccc3c2N(Cc2ccc(OC4CCNCC4)cc2)CCC3)cc2cc(F)ccc21`: the inhibition (in general, the percentage by which the read-out fell short of the control) at 10 min, 10 µM came to 4.6% against CYP1A2; 6.1% against CYP2D6; 16.1% at CYP2C19; 0% at CYP2C9; 40.1% on CYP3A4. Besides, the IC50 (commonly the point on the concentration scale where inhibition reaches its midpoint) with THP-1 was 9.63 µM; in data set [5], 0.54 nM; in the data set on A549 it was 3.01 µM; in [7] it was above 50 µM; with MCF7 it was 9.49 µM; in the data set on MGC-803 [10] it was 1.75 µM. In addition, the figures for the IC50 (in the data set on NB-4; in [14]; in the data set on PC-3) were 1.13 µM, above 50 µM and 4.29 µM, respectively. Also, the Activity in the data set on MGC-803 [1] is 28.1%; in the data set with MGC-803 [2], 24.86%; with MGC-803 [3] it was “Dose-dependent effect”; in the data set with MGC-803 [4] it was 28.6%; in data set [15], “Non-Toxic”. Besides, the intrinsic metabolic clearance (microsomal CLint) – broadly, the capacity of the preparation to metabolise the compound, expressed as a volume cleared per time – in data set [6] was 22.4 µL/min/mg. Further, the Stabilty in data set [8] (microsomes, 1 h) is listed as 122.6%. Moreover, in [9], the inhibition entry was “Dose-dependent effect”. For the same compound, the result in the data set on MGC-803 [11] and in the data set with MGC-803 [16] was Active. Also, the remaining at 1 h in [12] was 57.5%. The half-life (as a rule, the time in which the quantity being followed falls by half) in data set [13] is 61.9 min.

On to `Cn1c(C(=O)Nc2cccc3c2N(Cc2ccc(OC4CCNCC4)cc2)CCC3)cc2ccccc21`, for which the IC50 is 9.68 µM in the data set with THP-1; 0.05 nM in data set [5]; 5.97 µM with A549; above 50 µM in data set [7]; 5.83 µM with MCF7; 1.13 µM with MGC-803 [10]. The IC50 was 9.53 µM with NB-4, above 50 µM in [14] and 2.86 µM with PC-3. The Activity is 22.79% with MGC-803 [2] and “Dose-dependent effect” with MGC-803 [3]. In [6], this compound returned a microsomal CLint of 50.1 µL/min/mg. Moreover, the inhibition result in data set [17], in [18], in data set [19] and in data set [20] was “Active” in each case. The remaining at 1 h in data set [8] (liver microsomes, read-out: Stabilty) came to 101%; in [12], 20.3%. The inhibition result in [9] was “Dose-dependent effect”. The result in the data set on MGC-803 [11] and in the data set on MGC-803 [16] was Active. This compound also registered a half-life in [13] of 27.7 min.

In the case of `CCOCc1cccc(NC(=O)c2cc3sccc3n2C)c1COc1ccc(OC[C@H]2CCNC2)cc1`, the IC50 in data set [5] is 0.1 nM; in data set [21] it was 0.0078 µM.
